The target in the assay is T1, Human RET kinase cytoplasmic domain (Homo sapiens, UniProt P07949).
T1 construct: made in house
T1 sequence (P07949 658-1114): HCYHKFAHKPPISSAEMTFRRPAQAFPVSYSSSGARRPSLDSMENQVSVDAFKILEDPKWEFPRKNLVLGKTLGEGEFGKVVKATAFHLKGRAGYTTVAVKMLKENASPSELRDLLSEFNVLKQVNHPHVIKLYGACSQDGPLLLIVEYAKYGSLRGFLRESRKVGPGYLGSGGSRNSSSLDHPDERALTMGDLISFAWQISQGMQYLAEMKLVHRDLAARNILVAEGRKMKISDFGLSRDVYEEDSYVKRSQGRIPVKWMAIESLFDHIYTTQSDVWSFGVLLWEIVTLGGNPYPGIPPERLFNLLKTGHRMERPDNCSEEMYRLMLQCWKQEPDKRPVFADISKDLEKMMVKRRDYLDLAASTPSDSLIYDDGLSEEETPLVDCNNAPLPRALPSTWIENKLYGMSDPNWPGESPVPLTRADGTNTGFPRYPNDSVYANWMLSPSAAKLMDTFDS
As to the kind of experiment: RET kinase enzymatic assay. Format: biochemical. A digest of the protocol:
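GST-RET, 0.2 nM in 2× enzyme mix (HEPES, CHAPS, BSA, DTT), preincubated with inhibitor 30 min at 23 °C. Reaction for 1 h at 23 °C after adding 2× substrate mix: 20 μM ATP, 20 mM MgCl2, 1 μM biotinylated peptide. Single wells per concentration; IC50 from sigmoidal dose-response fit.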

Where a name gives a salt, the structure may show the parent alone.

Turning to `CCOc1cc(-c2ccc(NC(=O)Nc3ccc(OC4(C)CS(=O)(=O)C4)c(C(F)(F)F)c3)c(F)c2)c[nH]c1=O` [Example 150], the IC50 was < 100 nM.

In the case of `CCOCc1ccc(NC(=O)Nc2ccc(-c3c[nH]c(=O)c(OCC)c3)cc2F)cc1C(F)(F)F` [Example 151], the half-inhibitory concentration (IC50) was < 100 nM.

As to `CCOc1cc(-c2ccc(NC(=O)Nc3ccc(Cl)c(C(F)(F)F)c3)c(F)c2)c[nH]c1=O` [Example 152], the IC50 was < 100 nM.

Consider `CCOc1cc(F)c(C(F)(F)F)cc1NC(=O)Nc1ccc(-c2c[nH]c(=O)c(OCC)c2)cc1F` [Example 153], for which the IC50 was < 100 nM.

On to `CCOc1cc(-c2ccc(NC(=O)Nc3ccc(CN4CC[C@H](F)C4)c(C(F)(F)F)c3)c(F)c2)c[nH]c1=O` [Example 154], for which the IC50 is < 100 nM.

For `O=C(Nc1ccc(-c2c[nH]c(=O)c3occc23)cc1F)Nc1cc(C(F)(F)F)ccc1F` [Example 155], the concentration for half-maximal inhibition (IC50) is < 100 nM.

Regarding `CCOc1cc(-c2ccc(NC(=O)Nc3ccc(F)c(C(F)(F)F)c3)c(F)c2)c[nH]c1=O` [Example 156], the IC50 was < 100 nM.

Regarding `CC1(Oc2ccc(NC(=O)Nc3ccc(-c4ccc(=O)[nH]c4)cc3)cc2C(F)(F)F)COC1` [Example 157], the IC50 was < 100 nM.

Take `CCOc1cc(-c2ccc(NC(=O)Nc3ccc(C#N)c(C(F)(F)F)c3)c(F)c2)c[nH]c1=O` [Example 158]: the 50% inhibitory concentration (IC50) was < 100 nM.

For `CCOc1cc(-c2ccc(NC(=O)Nc3ccc(OC(C)(C)COC)c(C(F)(F)F)c3)c(F)c2)c[nH]c1=O` [Example 159], the 50% inhibitory concentration (IC50) is < 100 nM.

As to `CCOc1cc(-c2ccc(NC(=O)Nc3ccc(OC(C)C)c(C(F)F)c3)cc2F)c[nH]c1=O` [Example 160], the IC50 is < 100 nM.

`CCOc1cc(-c2ccc(NC(=O)Nc3ccc(OC4CC(F)(F)C4)c(C(F)(F)F)c3)c(F)c2)c[nH]c1=O` [Example 161]: the IC50 is < 100 nM.

Take `CCOc1cc(-c2ccc(NC(=O)Nc3ccc(C(N)=O)c(C(F)(F)F)c3)c(F)c2)c[nH]c1=O` [Example 162]: the IC50 is < 100 nM.

For the molecule `CC(C)Oc1ccc(NC(=O)Nc2ccc(-c3ccc(=O)[nH]c3)cc2)cc1C(F)(F)F` [Example 163], the IC50 is < 100 nM.

For the molecule `O=C(Nc1ccc(OCCO)c(C(F)(F)F)c1)Nc1ccc(-c2c[nH]c(=O)c(OC(F)F)c2)cc1F` [Example 164], the IC50 is < 100 nM.

For `CCOc1cc(-c2ccc(NC(=O)Nc3ccc(CCN(C)C)c(C(F)(F)F)c3)c(F)c2)c[nH]c1=O` [Example 165], the concentration for half-maximal inhibition (IC50) is < 100 nM.

As for `CCOc1cc(-c2ccc(NC(=O)Nc3ccc(OC4(C)COC4)c(C(F)(F)F)c3F)c(F)c2)c[nH]c1=O` [Example 166], the IC50 was < 100 nM.

Turning to `CCOc1cc(-c2ccc(NC(=O)Nc3ccc(OC4(C)CCOC4)c(C(F)(F)F)c3)c(F)c2)c[nH]c1=O` (centres unmarked) [Example 167], the half-maximal inhibitory concentration (IC50) is < 100 nM.

On to `Cc1cc(=O)[nH]cc1-c1ccc(NC(=O)Nc2ccc(OC3(C)COC3)c(C(F)(F)F)c2)c(F)c1` [Example 168], for which the IC50 is < 100 nM.

On to `CC1(Oc2ccc(NC(=O)Nc3ccc(-c4ccc(=O)[nH]c4)cc3)cc2C(F)F)COC1` [Example 169], for which the IC50 is < 100 nM.

With `CCOc1cc(-c2ccc(NC(=O)Nc3ccc(Cl)c(Cl)c3)c(F)c2)c[nH]c1=O` [Example 170], the IC50 is < 100 nM.

`CCOc1cc(-c2ncc(NC(=O)Nc3cc(C(F)(F)F)c(CN4CCN(CCO)CC4)cc3F)c(C)n2)c[nH]c1=O` [Example 171, 1-(2-(5-Ethoxy-6-oxo-1,6-dihydropyridin-3-yl)-4-methylpyrimidin-5-yl)-3-(2-fluoro-4-((4-(2-hydroxyethyl)piperazin-1-yl)methyl)-5-(trifluoromethyl)phenyl)urea]: the IC50 is < 100 nM.

For the molecule `CCN1CCN(Cc2cc(F)c(NC(=O)Nc3cnc(-c4c[nH]c(=O)c(OCCO)c4)nc3C)cc2C(F)(F)F)CC1` [Example 172, 1-(4-((4-Ethylpiperazin-1-yl)methyl)-2-fluoro-5-(trifluoromethyl)phenyl)-3-(2-(5-(2-hydroxyethoxy)-6-oxo-1,6-dihydropyridin-3-yl)-4-methylpyrimidin-5-yl)urea], the IC50 is < 100 nM.

Consider `Cc1nc(-c2c[nH]c(=O)c(OCCO)c2)ncc1NC(=O)Nc1cc(C(F)(F)F)c(CN2CCN(CCO)CC2)cc1F` [Example 173, 1-(2-Fluoro-4-((4-(2-hydroxyethyl)piperazin-1-yl)methyl)-5-(trifluoromethyl)phenyl)-3-(2-(5-(2-hydroxyethoxy)-6-oxo-1,6-dihydropyridin-3-yl)-4-methylpyrimidin-5-yl)urea], for which the IC50 is < 100 nM.

On to `CCOc1cc(-c2ncc(NC(=O)Nc3cc(C(F)(F)F)cc(S(=O)(=O)NCCN(C)C)c3)c(C)n2)c[nH]c1=O` [Example 174, N-(2-(dimethylamino)ethyl)-3-(3-(2-(5-ethoxy-6-oxo-1,6-dihydropyridin-3-yl)-4-methylpyrimidin-5-yl)ureido)-5-(trifluoromethyl)benzenesulfonamide], for which the IC50 is < 100 nM.

Regarding `CCOc1cc(-c2ncc(NC(=O)Nc3ccc(C(C)N)c(C(F)(F)F)c3)c(C)n2)c[nH]c1=O` (centres unmarked) [Example 175, 1-(4-(1-Aminoethyl)-3-(trifluoromethyl)phenyl)-3-(2-(5-ethoxy-6-oxo-1,6-dihydropyridin-3-yl)-4-methylpyrimidin-5-yl)urea], the concentration for half-maximal inhibition (IC50) is < 100 nM.

As to `CCOc1cc(-c2ncc(NC(=O)Nc3ccc(C(C)N(C)C)c(C(F)(F)F)c3)c(C)n2)c[nH]c1=O` (centres unmarked) [Example 176, 1-(4-(1-(Dimethylamino)ethyl)-3-(trifluoromethyl)phenyl)-3-(2-(5-ethoxy-6-oxo-1,6-dihydropyridin-3-yl)-4-methylpyrimidin-5-yl)urea], the IC50 was < 100 nM.

For `CCOc1cc(-c2ncc(NC(=O)Nc3ccc(CCN4CCCC4)c(C(F)(F)F)c3)c(C)n2)c[nH]c1=O` [Example 177, 1-(2-(5-Ethoxy-6-oxo-1,6-dihydropyridin-3-yl)-4-methylpyrimidin-5-yl)-3-(4-(2-(pyrrolidin-1-yl)ethyl)-3-(trifluoromethyl)phenyl)urea], the IC50 was < 100 nM.

With `CCOc1cc(-c2ncc(NC(=O)Nc3cc(OCCN(C)C)cc(C(F)(F)F)c3)cn2)c[nH]c1=O` [Example 178, 1-(3-(2-(dimethylamino)ethoxy)-5-(trifluoromethyl)phenyl)-3-(2-(5-ethoxy-6-oxo-1,6-dihydropyridin-3-yl)pyrimidin-5-yl)urea dihydrochloride], the IC50 was < 100 nM.

For the molecule `CCOc1cc(-c2ncc(NC(=O)Nc3ccc(CN(C)C)c(C(F)(F)F)c3)cn2)c[nH]c1=O` [Example 179, 1-(4-((Dimethylamino)methyl)-3-(trifluoromethyl)phenyl)-3-(2-(5-ethoxy-6-oxo-1,6-dihydropyridin-3-yl)pyrimidin-5-yl)urea], the IC50 is < 100 nM.

Regarding `CCOc1cc(=O)[nH]cc1-c1ncc(NC(=O)Nc2cc(C(C)(C)C(F)(F)F)on2)cn1` [Example 180, 1-(2-(4-Ethoxy-6-oxo-1,6-dihydropyridin-3-yl)pyrimidin-5-yl)-3-(5-(1,1,1-trifluoro-2-methylpropan-2-yl)isoxazol-3-yl)urea hydrochloride], the IC50 is < 100 nM.

For `CCOc1cc(-c2ncc(NC(=O)Nc3cc(C(C)(C)C(F)(F)F)on3)cn2)c[nH]c1=O` [Example 181, 1-(2-(5-Ethoxy-6-oxo-1,6-dihydropyridin-3-yl)pyrimidin-5-yl)-3-(5-(1,1,1-trifluoro-2-methylpropan-2-yl)isoxazol-3-yl)urea hydrochloride], the IC50 was < 100 nM.

The record behind these values is patent publication US10294236B2, “Compounds as rearranged during transfection (RET) inhibitors” (GLAXOSMITHKLINE INTELLECTUAL PROPERTY DEVELOPMENT LIMITED, priority 2014, dated 2019).
